This is an account of results in patent publication US8048881B2, “Pyrimidine derivatives and their use as P2Y12 receptor antagonists” (Actelion Pharmaceuticals Ltd., priority 2005, dated 2011).

Where a name gives a salt, the structure may show the parent alone.

The target in the test is T1, human P2Y12 receptor (Homo sapiens, UniProt Q9H244).
T1 construct: expressed in transfected cells; host or cells: Chinese Hamster Ovary (CHO) cells
T1 sequence (Q9H244 whole entry): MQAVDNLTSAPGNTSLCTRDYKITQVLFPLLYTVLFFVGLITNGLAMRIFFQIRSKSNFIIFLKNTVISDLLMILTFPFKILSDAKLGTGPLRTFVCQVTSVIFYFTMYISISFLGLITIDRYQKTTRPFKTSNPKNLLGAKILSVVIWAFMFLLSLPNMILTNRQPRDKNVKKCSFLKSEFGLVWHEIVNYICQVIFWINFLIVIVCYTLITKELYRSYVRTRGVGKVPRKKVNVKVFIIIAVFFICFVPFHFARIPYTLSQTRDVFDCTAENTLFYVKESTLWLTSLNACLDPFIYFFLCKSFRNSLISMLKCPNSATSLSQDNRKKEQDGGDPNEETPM
Kind of test: P2Y12 receptor binding assay. Conditions: CHO cells with recombinant expression of the human P2Y12 receptor; tritium-labeled 2-methyl-S-ADP; incubation at room temperature for 2 hours. On the procedure:
P2Y12 Receptor Binding Assay
Chinese Hamster Ovary (CHO) cells with recombinant expression of the human P2Y12 receptor were cultured in 24 well cell-culture plates. Cells were washed three times with binding buffer (50 mM Tris pH 7.4, 100 mM NaCl, 1 mM EDTA, 0.5% BSA). The cells were then incubated with 0.5 ml per well binding buffer containing tritium-labeled 2-methyl-thio-adenosine 5′-diphosphate (2-methyl-S-ADP) (between 100'000 and 300'000 dpm per well) and various concentrations of test compounds. After incubation at room temperature for 2 hours, cells were washed three times with binding buffer. Then, cells were solubilized by addition of 0.5 ml solubilization buffer (SDS, NaOH, EDTA). The content of each well was then transferred into beta-counter vials and 2.0 ml of Ultima Gold Scintillation liquid was added.
Consider `CCOC(=O)N1CCN(C(=O)[C@H](CCC(=O)O)NC(=O)c2cc(OCC3CC3)nc(-c3ccccc3)n2)CC1` [Example 27, 4-{(S)-4-carboxy-2-[(6-cyclopropylmethoxy-2-phenyl-pyrimidine-4-carbonyl)-amino]-butyryl}-piperazine-1-carboxylic acid ethyl ester], for which the 50% inhibitory concentration (IC50) (as a rule, the concentration that inhibits the measured activity by half) worked out at 193 nM.
The value for `CC(C)OC(=O)N1CCN(C(=O)[C@H](CCC(=O)O)NC(=O)c2cc(OC3CCCC3)nc(-c3ccccc3)n2)CC1` [Example 38, 4-{(S)-4-carboxy-2-[(6-cyclopentyloxy-2-phenyl-pyrimidine-4-carbonyl)-amino]-butyryl}-piperazine-1-carboxylic acid isopropyl ester] was 95 nM; that for `CCOC(=O)N1CCN(C(=O)[C@H](CCC(=O)O)NC(=O)c2cc(C(F)(F)F)nc(-c3ccccc3)n2)CC1` [Example 431, 4-{(S)-4-carboxy-2-[(2-phenyl-6-trifluoromethyl-pyrimidine-4-carbonyl)-amino]-butyryl}-piperazine-1-carboxylic acid ethyl ester] was 170 nM.
The value for `CCOC(=O)N1CCN(C(=O)[C@H](CCC(=O)O)NC(=O)c2cc(SC3CCCCC3)nc(-c3ccccc3)n2)CC1` [Example 251, 4-{(S)-4-carboxy-2-[(6-cyclohexylsulfanyl-2-phenyl-pyrimidine-4-carbonyl)-amino]-butyryl}-piperazine-1-carboxylic acid ethyl ester] was 624 nM.
The value for `CCOCc1cc(C(=O)N[C@@H](CCC(=O)O)C(=O)N2CCN(C(=O)OCC)CC2)nc(-c2ccccc2)n1` [Example 430, 4-{(S)-4-carboxy-2-[(6-ethoxymethyl-2-phenyl-pyrimidine-4-carbonyl)-amino]-butyryl}-piperazine-1-carboxylic acid ethyl ester] was 188 nM; that for `CCOC(=O)N1CCN(C(=O)[C@H](CCC(=O)O)NC(=O)c2cc(NCCCN3CCOCC3)nc(-c3ccccc3)n2)CC1` [Example 66, 4-((S)-4-carboxy-2-{[6-(3-morpholin-4-yl-propylamino)-2-phenyl-pyrimidine-4-carbonyl]-amino}-butyryl)-piperazine-1-carboxylic acid ethyl ester triflate salt] was 202 nM.
For `CCOC(=O)N1CCN(C(=O)[C@H](CCC(=O)O)NC(=O)c2cc(N)nc(-c3ccccc3)n2)CC1` [Example 333, 4-{(S)-2-[(6-amino-2-phenyl-pyrimidine-4-carbonyl)-amino]-4-carboxy-butyryl}-piperazine-1-carboxylic acid ethyl ester triflate salt], the half-inhibitory concentration (IC50) worked out at 161 nM.
The value for `CCOC(=O)N1CCN(C(=O)[C@H](CCC(=O)O)NC(=O)c2cc(CN(C)Cc3ccccc3)nc(-c3ccccc3)n2)CC1` [Example 362, 4-[(S)-2-({6-[(benzyl-methyl-amino)-methyl]-2-phenyl-pyrimidine-4-carbonyl}-amino)-4-carboxy-butyryl]-piperazine-1-carboxylic acid ethyl ester] was 86 nM.
The value for `CCOC(=O)N1CCN(C(=O)[C@H](CCC(=O)O)NC(=O)c2cc(OC3CCCC3)nc(-c3ccccc3)n2)CC1C` (stereo partly drawn) [Example 46, 4-{(S)-4-carboxy-2-[(6-cyclopentyloxy-2-phenyl-pyrimidine-4-carbonyl)-amino]-butyryl}-2-methyl-piperazine-1-carboxylic acid ethyl ester] was 510 nM; that for `CCOC(=O)N1CCN(C(=O)[C@H](CCC(=O)O)NC(=O)c2cc(SC3CCCC3)nc(-c3ccccc3)n2)CC1` [Example 249, 4-{(S)-4-carboxy-2-[(6-cyclopentylsulfanyl-2-phenyl-pyrimidine-4-carbonyl)-amino]-butyryl}-piperazine-1-carboxylic acid ethyl ester] was 101 nM; that for `CCOC(=O)N1CCN(C(=O)[C@H](CCC(=O)O)NC(=O)c2cc(/C=C/C(C)O)nc(-c3ccccc3)n2)CC1` (stereo partly drawn) [Example 267, 4-((S)-4-carboxy-2-{[6-((E)-3-hydroxy-but-1-enyl)-2-phenyl-pyrimidine-4-carbonyl]-amino}-butyryl)-piperazine-1-carboxylic acid ethyl ester] was 216 nM.
On to `CCCSc1cc(C(=O)N[C@@H](CCC(=O)O)C(=O)N2CCN(C(=O)OCC)CC2)nc(-c2ccccc2)n1` [Example 247, 4-{(S)-4-carboxy-2-[(2-phenyl-6-propylsulfanyl-pyrimidine-4-carbonyl)-amino]-butyryl}-piperazine-1-carboxylic acid ethyl ester], for which the IC50 is 142 nM.
Take `CCOC(=O)N1CCN(C(=O)[C@H](CCC(=O)O)NC(=O)c2cc(CCC(C)(C)O)nc(-c3ccccc3)n2)CC1` [Example 266, 4-((S)-4-carboxy-2-{[6-(3-hydroxy-3-methyl-butyl)-2-phenyl-pyrimidine-4-carbonyl]-amino}-butyryl)-piperazine-1-carboxylic acid ethyl ester]: the half-maximal inhibitory concentration (IC50) came to 273 nM.
As to `CCOC(=O)N1CCN(C(=O)[C@H](CCC(=O)OC(C)(C)C)NC(=O)c2cc(OCC(=O)O)nc(-c3ccccc3)n2)CC1` [Example 132, 4-{(S)-4-tert-butoxycarbonyl-2-[(6-carboxymethoxy-2-phenyl-pyrimidine-4-carbonyl)-amino]-butyryl}-piperazine-1-carboxylic acid ethyl ester], the IC50 is 8110 nM.
Regarding `CCOC(=O)N1CCN(C(=O)[C@H](CCc2nnn[nH]2)NC(=O)c2cc(OC3CCCC3)nc(-c3ccccc3)n2)CC1` [Example 19, 4-[(S)-2-[(6-cyclopentyloxy-2-phenyl-pyrimidine-4-carbonyl)-amino]-4-(1H-tetrazol-5-yl)-butyryl]-piperazine-1-carboxylic acid ethyl ester], the IC50 worked out at 127 nM.
The value for `CCOC(=O)N1CCN(C(=O)[C@H](CCC(=O)O)NC(=O)c2cc(C)nc(-c3cccc(C)c3)n2)CC1` [Example 105, 4-{(S)-4-carboxy-2-[(6-methyl-2-m-tolyl-pyrimidine-4-carbonyl)-amino]-butyryl}-piperazine-1-carboxylic acid ethyl ester] was 940 nM; that for `CCOC(=O)N1CCN(C(=O)[C@H](CCC(=O)O)NC(=O)c2cc(CCO)nc(-c3ccccc3)n2)CC1` [Example 408, 4-((S)-4-carboxy-2-{[6-(2-hydroxy-ethyl)-2-phenyl-pyrimidine-4-carbonyl]-amino}-butyryl)-piperazine-1-carboxylic acid ethyl ester] was 207 nM; that for `CCOC(=O)N1CCN(C(=O)[C@H](CCC(=O)O)NC(=O)c2cc(C(C)=O)nc(-c3ccccc3)n2)CC1` [Example 402, 4-{(S)-2-[(6-acetyl-2-phenyl-pyrimidine-4-carbonyl)-amino]-4-carboxy-butyryl}-piperazine-1-carboxylic acid ethyl ester] was 72 nM.
The value for `CCOC(=O)N1CCN(C(=O)[C@H](CCC(=O)O)NC(=O)c2cc(CS(=O)(=O)CC)nc(-c3ccccc3)n2)CC1` [Example 375, 4-{(S)-4-carboxy-2-[(6-ethanesulfonylmethyl-2-phenyl-pyrimidine-4-carbonyl)-amino]-butyryl}-piperazine-1-carboxylic acid ethyl ester] was 108 nM; that for `CCOC(=O)N1CCN(C(=O)[C@H](CCCC(=O)O)NC(=O)c2cc(-c3ccccc3)nc(-c3ccccc3)n2)CC1` [Example 121, 4-{(S)-5-carboxy-2-[(2,6-diphenyl-pyrimidine-4-carbonyl)-amino]-pentanoyl}-piperazine-1-carboxylic acid ethyl ester] was 127 nM.
